From patent US8889156B2, “Calcium-binding agents induce hair growth and/or nail growth” (priority 2009, dated 2014)

What was measured:
[1] = literature values quoted for comparison; cited from earlier work
[2] = HA binding assay (pulldown of fluorescein-labeled peptides, Langmuir isotherm fit); conditions: fit of Langmuir equation
Procedure: Fluorescein-labeled DSS-containing peptides of various lengths were subjected to pulldown assays as follows: Samples containing varying concentrations of fluorescein-labeled peptide (0-100 μM) and a fixed amount (0.3 mg) of HA nanocrystals with a specific surface area of 100 m^2/g (Berkeley Advanced Biomaterials, Berkeley, Calif.) were prepared. Measurements were taken of the absorbance of the labeled peptide at 488 nm (the peak absorbance of the fluorescein label) before and after exposure to the HA. The amount of peptide bound was calculated by comparing the ratio of the final (Af) and initial (Ai) absorbances to the initial concentration (C0) [Cbound=(Af/Ai)C0]. Plots were generated of the amount of peptide bound per meter squared of HA surface area vs. concentration of unbound peptide at equilibrium. The resulting isotherms were fit to the Langmuir isotherm, x/m=(KANmaxCeq)/(1+KACeq), where x/m represents the molar amount of peptide bound per unit of HA surface area, KA is the affinity constant of the peptide for the HA surface (L/Mol), Nmax is the maximum surface concentration (mol/m^2), and Ceq is the molar concentration of unbound peptide at equilibrium (Calis et al. (1995) Pharm Res., 12: 1072-1076).
In order to quantitatively assess the strength of the DSS-HA interaction as well as to determine the roles of peptide length and sequence on binding, fluorescein-labeled, DSS-containing peptides of various lengths were subjected to pulldown assays as described in “Materials and Methods.”
The experimental data were fit to the Langmuir isotherm, which describes the binding of molecules to surfaces with the conditions that (1) all binding sites have the same affinity for the peptide and (2) the peptide will form a monolayer on the surface but cannot accumulate to higher levels (Atkins (1994) Physical chemistry. Freeman, New York). The excellent fit of the Langmuir isotherm to the experimental data validates these conditions, and the constants obtained from this analysis were used for comparisons between peptides. As shown in FIG. 7A and summarized in Table 6, both the binding affinity (KA) and the monolayer concentration (NMax) of the various peptides increased with the number of DSS repeats per peptide. Additionally, several variant peptides were tested (FIGS. 7B, 7C, Table 6): a peptide containing a longer side chain at the first position (4ESS (SEQ ID NO:34)), peptides containing a more sterically hindered hydroxyl group at the second and third positions (4DTT (SEQ ID NO:36), 4NTT (SEQ ID NO:38), 4ETT (SEQ ID NO:37)), peptides lacking a charged group at the first position (4NSS (SEQ ID NO:35), 8ASS (SEQ ID NO:26)), and peptides lacking hydroxyl groups at the second and third positions (DAA-8 (SEQ ID NO:40), 8NAA (SEQ ID NO:41)).

[3] = Tissue specific binding of labeled peptides to sections of human teeth (CLSM); conditions: 5(6)-carboxyfluorescein-labeled peptide, ten minutes
Excerpt: In order to investigate the tissue specificity of DSS peptide binding to tooth tissue, sections of human teeth were exposed to DSS peptides and variants, then imaged by CLSM. The peptides utilized for these experiments were 8DSS (SEQ ID NO:33), 8ASS (SEQ ID NO:26), 8DAA (SEQ ID NO:40), 8NAA (SEQ ID NO:41), 4DSS (SEQ ID NO:31), 4ESS (SEQ ID NO:34), 4NSS (SEQ ID NO:35), 4DTT (SEQ ID NO:36), 4ETT (SEQ ID NO:37), 4NTT (SEQ ID NO:38), and 6DSS (SEQ ID NO:32). Sagittal sections of human teeth extracted during normal clinical practice were polished and then incubated for ten minutes in a solution of the appropriate 5(6) carboxyfluorescein-labeled peptide (12.5pM) containing 10 mM NaCl and 50 mM HEPES, pH 7.0. Control samples were prepared without peptide. Samples were washed extensively after treatment and imaged by CLSM using blue laser illumination (A=488 nm) and a FITC emission filter, with identical camera and microscope settings for each sample. For each section, multiple scans were collected and assembled in an automated mode to generate panels of images representing an area of 13×13 mm, sufficient in most cases to encompass the whole section. […] Significant binding was also seen to the edges of the pulp cavity.

[4] = Binding of labeled peptides to carious lesions in teeth (CLSM); design: species or system human; conditions: labeled peptide, settings optimized per sample
Excerpt: Sections of human teeth containing obvious carious lesions, which consist of demineralized enamel, were polished and exposed to 5(6)-carboxyfluorescein-labeled DSS peptides and variants. The sections were washed extensively and imaged by CLSM using blue laser illumination (A=488 nm) and a FITC emission filter, with microscope and camera settings adjusted for each sample to optimize the signal detected from each peptide. The images were examined to identify the relative levels of peptide binding in healthy versus carious tissue. […] Given their ability to remineralize at sites of enamel degradation, they can also be used to initiate remineralization at sites of enamel degradation such as caries or injury sites without causing inappropriate nucleation on healthy tissue surfaces.

[5] = system: mineralizing mouse bone marrow nodules; experiment: Binding to mineralizing mouse bone marrow cultures (fluorescence microscopy); type: cell-based; conditions: labeled peptide, continuous treatment for 3 weeks
Procedure: Mouse bone marrow cultures were grown to confluence in DMEM+10% FBS and then treated continuously for 3 weeks with either 2.5 p.M 5(6)-carboxyfluorescein-labeled 6DSS (SEQ ID NO:32) or 2.5 p.M 5(6)-carboxyfluorescein-labeled peptide #3-1 (control peptide) in α-MEM+10% FBS+50 p.g/mL ascorbic acid 4 mM β-glycerophosphate. Cultures were imaged by fluorescence microscopy using a FITC excitation/emission filter set.
Having established that (DSS)n-containing peptides are able to actively bind HA, we sought to determine whether they would bind to emerging sites of mineralization in biologically derived tissue. Mouse bone marrow (MBM) cultures, cultured under osteogenic conditions, were treated continuously for 3 weeks with either labeled 6DSS (SEQ ID NO:32) peptide or labeled peptide #3-1 (non-calcium-binding control peptide). Cultures were imaged by fluorescence microscopy using a FITC excitation/emission filter set.

[6] = Free peptide with CaCl2 and NaHPO4: formation of HA crystals in solution; conditions: 25 μM free peptide
[7] = Binding of labeled peptide to sagittally sectioned adult human molars (CLSM, Example 6); conditions: fluorescein-labeled peptide, 10 min
Procedure: For binding experiments, sagittally sectioned adult human molars were incubated for 10 min in a solution of 12.5 p.M 5(6)-carboxyfluorescein-labeled 6DSS (SEQ ID NO:32) peptide containing 10 mM NaCl and 50 mM HEPES, pH 7.0. Control samples were prepared without peptide. Samples were rinsed after treatment and imaged by confocal laser scanning microscopy (CLSM) with illumination by a blue Kr/Ar laser (λ=488 nm) and a FITC emission filter. To test binding of DSS-containing peptides to biological tissue, sagittally sectioned human teeth were incubated treated with 6DSS (SEQ ID NO:32) (control samples were prepared without peptide), washed, and imaged by CLSM.

N[C@@H](CC(=O)O)C(=O)O [Asp, aspartic acid]
HA binding affinity [1]: 220 M⁻¹

N[C@@H](CCC(=O)O)C(=O)O [glutamic acid]
HA binding affinity [1]: 206 M⁻¹

N[C@@H](COP(=O)(O)O)C(=O)O [phosphoserine]
HA binding affinity [1]: 5,000-13,200 M^−1

N[C@@H](CO)C(=O)O [serine]
HA binding affinity [1]: 317,000 M^−1

DSS DSS DSS DSS DSS DSS (DSSDSSDSSDSSDSSDSS; synthetic calcium-binding peptide 6DSS)
Nmax (maximum monolayer surface concentration) [2]: 1.3 × 10^−7 ± 3 × 10^−9 mol/m^2
KA (binding affinity for HA) ([2]; fluorescein-labeled peptide 0-100 μM, 0.3 mg HA nanocrystals): 272,000 ± 26,000 M^−1
tissue pattern of binding in the tooth section [3]: bound primarily to the mantle dentin
level of binding (staining) to tooth surfaces ([3]; identical settings): the greatest levels of staining
specificity of binding to carious lesions versus healthy enamel [4]: highly specific binding to carious lesions
strength of staining of carious lesions [4]: exceptionally strong staining of carious lesions
staining of mineralizing MBM nodules [5]: bright staining of the mineralizing MBM nodules
enhancement of HA crystal formation by free peptide at subcritical CaHPO4 concentrations [6]: this was not observed
binding to dentin [7]: intense fluorescent staining
binding to enamel [7]: no binding to the enamel was seen

LIKHILHRL [#3-1, reference compound]
staining of mineralizing MBM nodules [5]: no binding seen
